The IC50 is the concentration needed to halve the response being measured.

In one test the test system is NCI-H69. Nature of the test: Small-cell-lung cancer cell proliferation inhibition assay (PrestoBlue), NCI-H69. Type of test: cell-based. Conditions: Homo sapiens, MYCN amplified SCLC cells, 72 hours. The protocol:
(§1) Small cell lung cancer cells NCI-H82 (ATCC HTB-175, cMYC amplified), NCI-H446 (ATCC® HTB-171, cMYC amplified), and NCI-H69 (ATCC® HTB-119, MYCN amplified) were seeded at the density of 5000-10000 cells per well in 96-well plates. After 24 hours, the cancer cells were treated with each compound at various concentrations (0-10 μM) and then incubated for another 72 hours. IC50 values were computed based on duplicated 8-point titration.

Another test deals with NCI-H446. Put plainly: Small-cell-lung cancer cell proliferation inhibition assay (PrestoBlue), NCI-H446. Type of test: cell-based. Conditions: Homo sapiens, cMYC amplified SCLC cells, 72 hours. The method, then:
as §1

The next test relates to NCI-H82. Nature of the test: Small-cell-lung cancer cell proliferation inhibition assay (PrestoBlue), NCI-H82. Type of test: cell-based. Conditions: Homo sapiens, cMYC amplified SCLC cells, 72 hours. The method, then: as §1
In test [1] the target is T1, human Aurora A (amino acids 123-401) (Homo sapiens, UniProt O14965).
T1 construct: human Aurora A (amino acids 123-401) was expressed in Sf9 insect cells; GST; made in house; host or cells: Sf9 insect cells
T1 sequence (O14965 123-401): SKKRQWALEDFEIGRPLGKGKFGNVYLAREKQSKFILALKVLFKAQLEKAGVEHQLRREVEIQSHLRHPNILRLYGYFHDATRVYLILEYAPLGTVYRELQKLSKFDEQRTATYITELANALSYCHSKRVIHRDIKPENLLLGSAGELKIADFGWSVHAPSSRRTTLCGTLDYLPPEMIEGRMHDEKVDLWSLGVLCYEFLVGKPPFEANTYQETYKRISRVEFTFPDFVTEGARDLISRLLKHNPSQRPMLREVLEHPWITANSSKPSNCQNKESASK
Nature of the test: Kinase-Glo Luminescent Kinase assay, in vitro inhibition of Aurora A kinase activity. The format is biochemical. Conditions: recombinant GST-tagged Aurora A, 5.0 μM ATP, 37° C., 120 minutes. The method, then: Recombinant glutathione S-transferase (GST)-tagged N-terminal truncated human Aurora A (amino acids 123-401) was expressed in Sf9 insect cells and then purified by glutathione affinity chromatography to afford recombinant Aurora A. Recombinant Aurora A (150 ng) was reacted with each test compound (100 nM) in 50 μL of 50 mM Tris-HCl pH 7.4, 10 mM NaCl, 10 mM MgCl2, 0.01% bovine serum albumin, 5.0 μM ATP, 1 mM dithiothreitol, 15 μM tetra(-LRRASLG) peptide at 37° C. for 120 minutes. Then, to the reaction was added 50 μL of Kinase-Glo Plus Reagent. The resulting mixture was incubated at 25° C. for 20 minutes. A 70 μL aliquot of the mixture was transferred to a black microliter plate. Luminescence was measured using a Wallac Vector 1420 multilabel counter (PerkinElmer, USA).
On the technique in general: Kinase-Glo reads ATP consumption through a luciferase reaction.

For `Cc1cc(Nc2cc(N3C[C@H](C)NC[C@H]3C)nc(N[C@H]3CCN(C(=O)c4ccc(Cl)cc4F)C3)n2)n[nH]1` [Compound 9], the IC50 in the test on NCI-H69, in the test with NCI-H446 and with NCI-H82 was below 1000 nM each time.
As for `Cc1cc(Nc2cc(N3C[C@@H](C)N[C@@H](C)C3)nc(N[C@H]3CCN(C(=O)c4ccc(Cl)cc4F)C3)n2)n[nH]1` [Compound 10], the IC50 with NCI-H69, in the test with NCI-H446 and in the test with NCI-H82 was below 1000 nM throughout.
Turning to `COCCN1CCN(c2cc(Nc3cc(C)[nH]n3)nc(N[C@H]3CCN(C(=O)c4ccc(Cl)cc4F)C3)n2)CC1` [Compound 13], the half-maximal inhibitory concentration (IC50) in test [1] is below 100 nM; with NCI-H69 it was below 1000 nM; in the test on NCI-H82 it was below 1000 nM.
Turning to `CCN1CCN(c2cc(Nc3cc(C)[nH]n3)nc(N[C@H]3CCN(C(=O)c4cc(Cl)ccc4F)C3)n2)CC1` [Compound 37], the IC50 in test [1] is below 100 nM; with NCI-H446, below 1000 nM; in the test with NCI-H82, below 1000 nM.
In the case of `CCN1CCN(c2cc(Nc3cc(C)[nH]n3)nc(N[C@H]3CCN(C(=O)c4cccc(Cl)c4F)C3)n2)CC1` [Compound 38], the IC50 was below 100 nM in test [1], below 1000 nM in the test on NCI-H446 and below 1000 nM in the test with NCI-H82.
On to `CCN1CCN(c2cc(Nc3cc(C)[nH]n3)nc(N[C@H]3CCN(C(=O)c4ccc(Cl)c(F)c4)C3)n2)CC1` [Compound 39], for which the IC50 in test [1] is below 100 nM; with NCI-H446 it was below 1000 nM; in the test with NCI-H82, below 1000 nM.
Regarding `CCN1CCN(c2cc(Nc3cc(C)[nH]n3)nc(N[C@H]3CCN(C(=O)c4ccc(Cl)c(F)c4F)C3)n2)CC1` [Compound 40], the IC50 in test [1] was below 100 nM; in the test on NCI-H446 it was below 1000 nM; in the test on NCI-H82 it was below 1000 nM.
As to `CCN1CCN(c2cc(Nc3cc(C)[nH]n3)nc(N[C@H]3CCN(C(=O)c4cc(F)c(Cl)cc4F)C3)n2)CC1` [Compound 43], the IC50 in test [1] is below 100 nM; in the test with NCI-H446, below 1000 nM; in the test on NCI-H82, below 1000 nM.
`CCN1CCN(c2cc(Nc3cc(C)[nH]n3)nc(N[C@H]3CCN(C(=O)c4ccc(F)cc4F)C3)n2)CC1` [Compound 44]: the concentration for half-maximal inhibition (IC50) in test [1] was below 100 nM; with NCI-H446, below 1000 nM; in the test with NCI-H82 it was below 1000 nM.
With `CCN1CCN(c2cc(Nc3cc(C)[nH]n3)nc(N[C@H]3CCN(C(=O)c4c(F)cc(Cl)cc4F)C3)n2)CC1` [Compound 47], the IC50 in test [1] is below 100 nM; in the test with NCI-H446, below 1000 nM; in the test with NCI-H82 it was below 1000 nM.
With `CCN1CCN(c2cc(Nc3cc(C)[nH]n3)nc(N[C@H]3CCN(C(=O)c4cccc(C(F)(F)F)c4F)C3)n2)CC1` [Compound 48], the IC50 is below 100 nM in test [1], below 1000 nM in the test on NCI-H446 and below 1000 nM in the test on NCI-H82.
For `CCN1CCN(c2cc(Nc3cc(C)[nH]n3)nc(N[C@H]3CCN(C(=O)c4ccc(Cl)c(C(F)(F)F)c4)C3)n2)CC1` [Compound 49], the IC50 in test [1] is below 100 nM; in the test with NCI-H446 it was below 1000 nM; in the test on NCI-H82 it was below 1000 nM.
With `CCN1CCN(c2cc(Nc3cc(C)[nH]n3)nc(N[C@H]3CCN(C(=O)c4nc(Cl)ccc4F)C3)n2)CC1` [Compound 50], the half-maximal inhibitory concentration (IC50) in test [1] was below 100 nM; with NCI-H446, below 1000 nM; in the test on NCI-H82, below 1000 nM.
In the case of `CCN1CCN(c2cc(Nc3cc(C)[nH]n3)nc(N[C@H]3CCN(C(=O)c4ccc(Cl)nc4Cl)C3)n2)CC1` [Compound 54], the figures for the IC50 (in test [1]; with NCI-H446; in the test with NCI-H82) were below 100 nM, below 1000 nM and below 1000 nM, respectively.
Consider `CCN1CCN(c2cc(Nc3cc(C)[nH]n3)nc(N[C@H]3CCN(S(=O)(=O)c4ccc(Cl)cc4C)C3)n2)CC1` [Compound 62], for which the figures for the IC50 (in test [1]; in the test with NCI-H446; with NCI-H82) were below 100 nM, below 1000 nM and below 1000 nM, respectively.
For the compound `CCN1CCN(c2cc(Nc3cc(C)[nH]n3)nc(N[C@H]3CCN(S(=O)(=O)c4ccc(Cl)cc4Cl)C3)n2)CC1` [Compound 63], the IC50 in test [1] is below 100 nM; in the test with NCI-H446 it was below 1000 nM; in the test with NCI-H82, below 1000 nM.
For the compound `CCN1CCN(c2cc(Nc3cc(C)[nH]n3)nc(N[C@H]3CCN(S(=O)(=O)c4cccc(Cl)c4F)C3)n2)CC1` [Compound 65], the values for the IC50 (in test [1]; with NCI-H446; with NCI-H82) were below 100 nM, below 1000 nM and below 1000 nM, respectively.
Take `CCC(=O)n1nc(Nc2cc(N3CCN(CC)CC3)nc(N[C@H]3CCN(C(=O)c4ccc(Cl)cc4F)C3)n2)cc1C` [Compound 72]: the IC50 with NCI-H69, in the test with NCI-H446 and with NCI-H82 was below 1000 nM each time.
Turning to `CCN1CCN(c2cc(Nc3cc(C)nn3C(=O)C(C)(C)C)nc(N[C@H]3CCN(C(=O)c4ccc(Cl)cc4F)C3)n2)CC1` [Compound 73], the IC50 in the test with NCI-H69, with NCI-H446 and with NCI-H82 was below 1000 nM throughout.
In the case of `CCN1CCN(c2cc(Nc3cc(C)n(C(=O)C(C)(C)C)n3)nc(N[C@H]3CCN(C(=O)c4ccc(Cl)cc4F)C3)n2)CC1` [Compound 74], the IC50 in the test with NCI-H69, with NCI-H446 and with NCI-H82 was below 1000 nM each time.
For `CCN1CCN(c2cc(Nc3cc(C)n(COC(=O)C(C)(C)C)n3)nc(N[C@H]3CCN(C(=O)c4ccc(Cl)cc4F)C3)n2)CC1` [Compound 75], the IC50 with NCI-H69, with NCI-H446 and in the test on NCI-H82 was below 1000 nM in each case.
As to `CCN1CCN(c2cc(Nc3cc(C)nn3C(=O)OCC(C)C)nc(N[C@H]3CCN(C(=O)c4ccc(Cl)cc4F)C3)n2)CC1` [Compound 78], the IC50 in the test on NCI-H69, with NCI-H446 and in the test with NCI-H82 was below 1000 nM each time.
Consider `CCN1CCN(c2cc(Nc3cc(C)n(C(=O)OCC(C)C)n3)nc(N[C@H]3CCN(C(=O)c4ccc(Cl)cc4F)C3)n2)CC1` [Compound 79], for which the 50% inhibitory concentration (IC50) in the test with NCI-H69, in the test with NCI-H446 and with NCI-H82 was below 1000 nM throughout.
`CCN1CCN(c2cc(Nc3cc(C)nn3C(=O)OC(C)(C)C)nc(N[C@H]3CCN(C(=O)c4ccc(Cl)cc4F)C3)n2)CC1` [Compound 80]: the 50% inhibitory concentration (IC50) with NCI-H69, with NCI-H446 and with NCI-H82 was below 1000 nM throughout.
As to `CCN1CCN(c2cc(Nc3cc(C)n(C(=O)OC(C)(C)C)n3)nc(N[C@H]3CCN(C(=O)c4ccc(Cl)cc4F)C3)n2)CC1` [Compound 81], the IC50 with NCI-H69, with NCI-H446 and with NCI-H82 was below 1000 nM each time.
Take `CCN1CCN(c2cc(Nc3cc(C)nn3C(=O)OCCOC)nc(N[C@H]3CCN(C(=O)c4ccc(Cl)cc4F)C3)n2)CC1` [Compound 82]: the half-inhibitory concentration (IC50) with NCI-H69, in the test with NCI-H446 and in the test on NCI-H82 was below 1000 nM in each case.
In the case of `CCN1CCN(c2cc(Nc3cc(C)n(C(=O)OCCOC)n3)nc(N[C@H]3CCN(C(=O)c4ccc(Cl)cc4F)C3)n2)CC1` [Compound 83], the IC50 in the test on NCI-H69, with NCI-H446 and in the test with NCI-H82 was below 1000 nM each time.
In the case of `CCN1CCN(c2cc(Nc3cc(C)[nH]n3)nc(NC3CCN(Cc4cccc(Cl)c4F)CC3)n2)CC1` [Compound 88], the IC50 in test [1] was below 100 nM; with NCI-H446 it was below 1000 nM; in the test with NCI-H82, below 1000 nM.
As for `Cc1cc(Nc2cc(N3CC(N(C)C)C3)nc(NC3CCN(C(=O)c4cccc(Cl)c4F)CC3)n2)n[nH]1` [Compound 89], the IC50 in test [1] was below 100 nM; in the test on NCI-H446 it was below 1000 nM; in the test with NCI-H82, below 1000 nM.
In the case of `Cc1cc(Nc2cc(N(C)CCN(C)C)nc(NC3CCN(C(=O)c4cccc(Cl)c4F)CC3)n2)n[nH]1` [Compound 95], the IC50 in test [1] is below 100 nM; in the test on NCI-H446, below 1000 nM; in the test with NCI-H82 it was below 1000 nM.
Take `COC1CN(c2cc(Nc3cc(C)[nH]n3)nc(NC3CCN(C(=O)c4cccc(Cl)c4F)CC3)n2)C1` [Compound 99]: the figures for the IC50 (in test [1]; with NCI-H69; with NCI-H446) were below 100 nM, below 1000 nM and below 1000 nM, respectively.
Consider `COCCN1CCN(c2cc(Nc3cc(C)[nH]n3)nc(NC3CCN(C(=O)c4cccc(Cl)c4F)CC3)n2)CC1` [Compound 101], for which the concentration for half-maximal inhibition (IC50) was below 100 nM in test [1], below 1000 nM with NCI-H69 and below 1000 nM in the test on NCI-H446.
As for `COC[C@@H]1CCCN1c1cc(Nc2cc(C)[nH]n2)nc(NC2CCN(C(=O)c3cccc(Cl)c3F)CC2)n1` [Compound 104], the IC50 is below 100 nM in test [1], below 1000 nM in the test with NCI-H69 and below 1000 nM in the test on NCI-H82.
`COC1CCN(c2cc(Nc3cc(C)[nH]n3)nc(NC3CCN(C(=O)c4cccc(Cl)c4F)CC3)n2)CC1` [Compound 105]: the IC50 with NCI-H69, in the test with NCI-H446 and in the test with NCI-H82 was below 1000 nM throughout.
